Data from US20260055126A1, “SMALL MOLECULE COMPOUNDS WITH PHOSPHORYLATED ARYL STRUCTURES AND USE THEREOF” (HANGZHOU PHECDAMED CO., LTD., priority 2022, published 2026).
Values joined by “and” are separate entries in the source; they are usually repeats but may differ in a detail not shown here. Equal entries are not always repeated. Where two headings read alike, the source gives them in different places.

Columns and labels:
[1] = molecular target: recombinant TEAD2 protein (218-447, Uniprot ID: Q15562) (Homo sapiens (Human), UniProt Q15562); assay: Thermal shift assay (protein melting point curve), TEAD2; assay type: binding; conditions: 10 μM TEAD protein, 50 μM test compound
Description: (§1) The ability of the compounds to increase the melting point of purified recombinant TEAD1/2/3/4 proteins is tested using a thermal shift assay. The strength of the compound's binding to the protein and the selectivity of the compound's binding to the four TEAD subtypes are evaluated by calculating the melting point shift ΔTm−° C. […] Based on the Δ Tm value, the ability of the compound to bind to the TEAD protein is divided into four levels: ++++, +++, ++, +.
(§2) Test method of protein melting point curve: 10 μL of the protein melting point curve experimental system (10 μM TEAD protein, 50 μM test compound, SYPRO® orange (55692, sigma)) is prepared in a 384-well fluorescence quantitative PCR plate according to the following system, and reacted at 4° C. in the dark for 20 minutes. On-machine reaction: ABI QuantStudio Dx fluorescence quantitative PCR instrument; program: from 25° C. to 80° C., increasing the temperature at a rate of 0.05° C./s, and reading the fluorescence channel signal of the corresponding wavelength of SYPRO® orange every second.

[2] = In vitro liver microsome stability, mouse; assay type: in vitro ADME; conditions: for metabolic stability: mouse liver microsome environment; for mouse half-life: mouse liver microsomes
Description: (§3) Testosterone is selected as the positive reference compound. The specific method is as follows:
(§4) Preparing 0.1MK3 PO4 (pH 7.4) buffer and 3×NADPH stock solution (6 mM, 5 mg/mL), and preheating in a 37° C. water bath; preparing spiking solution of tested compound and control compound: adding 5 μL compound stock solution (10 mM) to 95 μL acetonitrile; preparing 1.5 μM spiking solution in microsomes (0.75 mg/mL): add 1.5 μL spiking solution and 18.75 μL liver microsome solution (20 mg/mL) to 479.75 μL K3PO4 buffer; taking 30 μL spiking solution in microsomes and adding it to the multiwell plate, and incubating at 37° C. for 5 min; adding 15 μL of NADPH stock solution to each well, starting to react, and timing; adding 150 μL of acetonitrile solution containing IS at 0 min, 5 min, 15 min, 30 min, 45 min and 60 min respectively to terminate the reaction; after 10 min of oscillation, centrifuging the reaction at 6000 rpm for 15 min; taking 80 μL of supernatant from each well for LC/MS detection and calculating Ti/2.
(§5) Liver microsomes of mice, rats, dogs, and human used in the experiment are purchased from Xenotech.

[3] = molecular target: recombinant TEAD3 protein (218-435, Uniprot ID: Q99594) (Homo sapiens (Human), UniProt Q99594); assay: Thermal shift assay (protein melting point curve), TEAD3; assay type: binding; conditions: 10 μM TEAD protein, 50 μM test compound
Description: as §1, §2

[4] = molecular target: recombinant TEAD4 protein (217-434, Uniprot ID: Q15561) (Homo sapiens (Human), UniProt Q15561); assay: Thermal shift assay (protein melting point curve), TEAD4; assay type: binding; conditions: 10 μM TEAD protein, 50 μM test compound
Description: as §1, §2

[5] = In vitro liver microsome stability, human; assay type: in vitro ADME; conditions: for metabolic stability: human liver microsome environment; for human half-life: human liver microsomes
Description: as §3, §4, §5

[6] = tested on: recombinant TEAD1 protein (194-411, Uniprot ID: P28347); assay: Thermal shift assay (protein melting point curve), TEAD1; assay type: binding; design: key to the marks not given beside the values; conditions: 10 μM TEAD protein, 50 μM test compound
Description: as §1, §2

[7] = molecular target: recombinant TEAD1 protein central pocket (Homo sapiens (Human), UniProt P28347); assay: Competitive thiol binding assay (CPM assay), TEAD1; conditions: 150 nM recombinant TEAD protein, 150 nM CPM
Description: (§6) Diluting the tested compound in gradient to 5 uL with buffer (25 mM HEPES, 150 mM NaCl, pH6.5), then adding 5 μL of the newly prepared 0.45 uM recombinant TEAD protein solution, and incubating at room temperature for 10 minutes. […] After shaking the plate at room temperature for 1 hour, measuring the fluorescence intensity (Ex/Em: 380/470 nm).

TEAD family proteins = assay: Thermal shift assay, summary over all TEAD subtypes; assay type: binding; conditions: summary of Table 1
Description: as §1, §2

[8] = molecular target: recombinant TEAD4 protein central pocket (Homo sapiens (Human), UniProt Q15561); assay: Competitive thiol binding assay (CPM assay), TEAD4; conditions: 150 nM recombinant TEAD protein, 150 nM CPM
Description: as §6

[9] = Mouse plasma pharmacokinetic test; assay type: in vivo, CD-1 mice
Text: In this example, different compounds are used to perform a mouse pharmacokinetic experiment, and the specific steps are as follows: Animal information: CD-1 mice, male, about 20 g, purchase from Beijing Weitonglihua Experimental Animal Technology Co., Ltd.
Animal dietary status: Animals are not fasted before administration and allowed to drink water freely.
Compound preparation method: for intragastric administration (IG)(G1 group), preparing with 0.5% CMC-Na, and for intravenous injection(IV) (G2 group), preparing 5% DMSO+30% PEG400+65% water. […]
Sampling time points of G1 group: 8 points in total, namely 10 min, 30 min, 1 h, 2 h, 4 h, 6 h, 8 h and 24 h after administration, among them, animals G1M01-G1M03 are sampled at 3 time points, namely 10 min, 1 h and 6 h; animals G1M04-G1M06 are sampled at 3 time points, namely 30 min, 2 h and 8 h; animals G1M07-G1M09 are sampled at 2 time points, namely 4 h and 24 h.
Sampling time points of G2 group: 9 points in total, namely 5 min, 10 min, 30 min, 1 h, 2 h, 4 h, 6 h, 8 h, 24 h after administration. It is recommended that animals G2M01-G2M03 are sampled at 3 time points, namely 5 min, 1 h, and 6 h; animals G2M04-G2M06 are sampled at 3 time points, namely 10 min, 2 h, and 8 h; animals G2M07-G2M09 are sampled at 3 time points, namely 30 min, 4 h, and 24 h.
Sample collection: On the day of the experiment, collecting approximately 0.1 mL of whole blood samples at each preset time point and placing in EDTA-K2 anticoagulant tubes.
Sample processing: Within 30 minutes after whole blood sample collection, centrifuging at 4° C., 12,000 rpm for 5 minutes to separate plasma, collecting the upper plasma sample into a sample tube, and freezing the plasma sample in a −10˜−30° C. refrigerator within 30 minutes and transferring to a −60˜−90° C. refrigerator within 24 hours.
Sample testing and data processing: LC/MS/MS testing, WinNonlin for fitting and pharmacokinetic parameter calculation.

[10] = Permeability test on Caco2 cells; assay type: in vitro ADME; conditions: human, Caco-2, AP→BL
Description: (§7) After resuscitation, the Caco-2 cells are transferred to a conventional culture dish and cultured in a high-glucose DMEM medium (containing 10% FBS) at 37° C. and 5% CO2 in an incubator. When the cells cover 80% to 95% of the bottom of the dish, they are digested with trypsin containing 0.25% EDTA to disperse them into a single cell suspension, and the cell concentration is determined using a cell counter, after that, the concentration of the cell suspension is adjusted to 2 to 2.5×10^5/mL with fresh culture medium and inoculated into a Transwell polycarbonate membrane 12-well plate, the fresh culture medium is replaced every two days in the first two weeks and once a day in the last week, the culture is continued for 19 to 21 days to obtain a fully differentiated single cell layer.

Caco-2 cells = assay: Permeability test on Caco2 cells; assay type: in vitro ADME; conditions: for Papp / Receiving chamber concentration Area ratio/OD: single replicate; for Penetration Type: Caco2 cell model
Description: as §7

[11] = single replicate, read-out: Papp

Sequence of recombinant TEAD3 protein (218-435, Uniprot ID: Q99594) (Q99594 218-435): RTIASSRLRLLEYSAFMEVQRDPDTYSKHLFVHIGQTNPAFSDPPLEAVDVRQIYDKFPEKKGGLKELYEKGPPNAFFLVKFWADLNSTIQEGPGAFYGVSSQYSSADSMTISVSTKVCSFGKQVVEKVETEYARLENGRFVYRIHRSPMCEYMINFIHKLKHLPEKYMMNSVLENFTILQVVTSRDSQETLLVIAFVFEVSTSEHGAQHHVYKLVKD
Sequence of recombinant TEAD1 protein central pocket (P28347 whole entry): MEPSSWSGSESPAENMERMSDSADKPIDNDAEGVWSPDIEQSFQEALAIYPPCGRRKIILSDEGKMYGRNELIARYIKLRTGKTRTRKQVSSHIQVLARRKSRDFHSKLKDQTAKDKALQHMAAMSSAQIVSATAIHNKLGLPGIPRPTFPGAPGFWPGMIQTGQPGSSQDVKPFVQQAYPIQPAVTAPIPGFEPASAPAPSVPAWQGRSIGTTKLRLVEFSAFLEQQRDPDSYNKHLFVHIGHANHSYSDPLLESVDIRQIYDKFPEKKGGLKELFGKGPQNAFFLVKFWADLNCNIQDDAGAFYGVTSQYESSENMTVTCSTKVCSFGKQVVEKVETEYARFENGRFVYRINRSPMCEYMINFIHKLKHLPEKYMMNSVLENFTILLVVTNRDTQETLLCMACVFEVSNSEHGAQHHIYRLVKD
Sequence of recombinant TEAD2 protein (218-447, Uniprot ID: Q15562) (Q15562 218-447): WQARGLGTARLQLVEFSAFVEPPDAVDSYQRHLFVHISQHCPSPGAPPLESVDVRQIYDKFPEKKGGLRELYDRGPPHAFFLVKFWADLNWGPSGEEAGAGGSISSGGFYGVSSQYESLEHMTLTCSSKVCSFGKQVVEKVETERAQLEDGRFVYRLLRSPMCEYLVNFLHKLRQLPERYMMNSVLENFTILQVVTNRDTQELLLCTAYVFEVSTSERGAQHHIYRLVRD
Sequence of recombinant TEAD4 protein central pocket (Q15561 whole entry): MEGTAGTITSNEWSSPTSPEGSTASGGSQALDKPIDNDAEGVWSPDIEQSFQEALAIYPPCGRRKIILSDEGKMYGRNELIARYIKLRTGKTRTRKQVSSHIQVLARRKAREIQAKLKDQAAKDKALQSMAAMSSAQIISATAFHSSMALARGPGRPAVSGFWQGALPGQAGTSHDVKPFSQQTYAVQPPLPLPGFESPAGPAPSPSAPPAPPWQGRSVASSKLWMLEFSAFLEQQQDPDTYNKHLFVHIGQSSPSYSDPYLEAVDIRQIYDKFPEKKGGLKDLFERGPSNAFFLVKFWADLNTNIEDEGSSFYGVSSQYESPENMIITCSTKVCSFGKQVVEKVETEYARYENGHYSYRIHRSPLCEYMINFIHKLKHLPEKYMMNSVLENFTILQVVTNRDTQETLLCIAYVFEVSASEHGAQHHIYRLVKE
Sequence of recombinant TEAD4 protein (217-434, Uniprot ID: Q15561) (Q15561 217-434): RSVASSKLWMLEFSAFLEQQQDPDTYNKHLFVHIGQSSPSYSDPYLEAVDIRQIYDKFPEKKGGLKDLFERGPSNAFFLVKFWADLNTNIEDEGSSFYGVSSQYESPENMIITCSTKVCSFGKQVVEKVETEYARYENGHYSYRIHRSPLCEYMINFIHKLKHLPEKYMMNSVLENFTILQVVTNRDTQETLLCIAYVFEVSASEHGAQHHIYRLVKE

## Cn1cnc(-c2cc(P3(=O)CCNCC3)ccc2Nc2ccc(C(F)(F)F)cc2)c1 [Compound 1]
[1]
  Δ T m (TEAD2): +++
[2]
  metabolic stability: good metabolic stabilities
  mouse half-life: 1.56 h
[3]
  Δ T m (TEAD3): ++
[4]
  Δ T m (TEAD4): +++
[5]
  metabolic stability: good metabolic stabilities
  human half-life: 5.98 h
[6]
  Δ T m (TEAD1): +++

## CP(C)(=O)c1ccc(Nc2ccc(C(F)(F)F)cc2)c(-c2nc(OC3COC3)cs2)c1 [Compound 7]
[7]
  IC50: 170 nM
TEAD family proteins
  binding ability to each subtype of TEAD family proteins: good binding abilities
[1]
  Δ T m (TEAD2): ++
[3]
  Δ T m (TEAD3): ++
[4]
  Δ T m (TEAD4): ++++
[8]
  IC50: 250 nM
[6]
  Δ T m (TEAD1): ++++

## CP(C)(=O)c1ccc(Nc2ccc(C(F)(F)F)cc2)c(-c2nccc(N3CC[C@H](O)C3)n2)c1 [Compound 9]
[1]
  Δ T m (TEAD2): ++
[2]
  mouse half-life: 1.43 h
[3]
  Δ T m (TEAD3): +
[4]
  Δ T m (TEAD4): +++
[5]
  human half-life: 0.488 h
[6]
  Δ T m (TEAD1): +++

## CP(C)(=O)c1ccc(Nc2ccc(C(F)(F)F)cc2)c(-c2nccc(OC3CCOC3)n2)c1 (stereo not shown) [Compound 18]
[7]
  IC50: 160 nM
[1]
  Δ T m (TEAD2): +
[3]
  Δ T m (TEAD3): +
[4]
  Δ T m (TEAD4): +++
[8]
  IC50: 210 nM
[6]
  Δ T m (TEAD1): ++++

## CP(C)(=O)c1cc(-c2nccc(OC3COC3)n2)c(Nc2ccc(C(F)(F)F)cc2)s1 [Compound 24]
[7]
  IC50: 180 nM
[1]
  Δ T m (TEAD2): ++
[3]
  Δ T m (TEAD3): +
[4]
  Δ T m (TEAD4): ++++
[8]
  IC50: 290 nM
[6]
  Δ T m (TEAD1): ++++

## CP(C)(=O)c1ccc(NC2CCC(F)(F)CC2)c(-c2nccc(OC3COC3)n2)c1 [Compound 30]
[7]
  IC50: 690 nM
[1]
  Δ T m (TEAD2): +
[3]
  Δ T m (TEAD3): +
[4]
  Δ T m (TEAD4): ++
[8]
  IC50: 810 nM
[6]
  Δ T m (TEAD1): +++

## Cn1cnc(-c2cc(P(C)(C)=O)ccc2Nc2ccc(C(F)(F)F)cc2)c1 [Compound 64]
TEAD family proteins
  binding ability to each subtype of TEAD family proteins: good binding abilities
[9]; CD-1 mice, IG 10 mg/kg vs IV 1 mg/kg
  F %: 87.1%
[9]; CD-1 mice, single IG 10 mg/kg
  AUC0-t: 57458 ng·h/mL
  AUC0-∞: 69572 ng·h/mL
  Cmax: 4063 ng/mL
  MRT0-t: 8.16 h
  MRT0-∞: 13.3 h
  Tmax: 2.67 h
  t1/2: 9.43 h
[9]; CD-1 mice, single IV 1 mg/kg
  AUC0-t: 6596 ng·h/mL
  AUC0-∞: 7208 ng·h/mL
  CL: 2.33 mL/min/kg
  MRT0-t: 5.85 h
  MRT0-∞: 8.26 h
  Vss: 1.15 L/kg
  t1/2: 6.98 h
[9]; mice
  pharmacokinetic properties in mice: good pharmacokinetic properties
[2]
  metabolic stability: good metabolic stabilities
  mouse half-life: > 3.1 h
[5]
  metabolic stability: good metabolic stabilities
  human half-life: > 3.1 h
[6]
  Δ T m (TEAD1): ++++

## CCP(=O)(CC)c1ccc(Nc2ccc(C(F)(F)F)cc2)c(-c2nccc(OC3COC3)n2)c1 [Compound 66]
[7]
  IC50: 140 nM
[1]
  Δ T m (TEAD2): +
[3]
  Δ T m (TEAD3): +
[4]
  Δ T m (TEAD4): ++++
[6]
  Δ T m (TEAD1): ++++

## CP(C)(=O)c1ccc(Nc2cccc(OC(F)(F)F)c2)c(-c2nccc(OC3COC3)n2)c1 [Compound 67]
[1]
  Δ T m (TEAD2): ++
[3]
  Δ T m (TEAD3): +
[4]
  Δ T m (TEAD4): +++
[6]
  Δ T m (TEAD1): +++

## Cc1nnc(-c2cc(P(C)(C)=O)ccc2Nc2ccc(C(F)(F)F)cc2)o1 [Compound 69]
[1]
  Δ T m (TEAD2): +
[3]
  Δ T m (TEAD3): ++
[4]
  Δ T m (TEAD4): ++
[6]
  Δ T m (TEAD1): ++

## CP(C)(=O)c1ccc(Nc2ccc(C(F)(F)F)cc2)c(-c2cn(C3COC3)cn2)c1 [Compound 70]
[1]
  Δ T m (TEAD2): ++
[3]
  Δ T m (TEAD3): +
[4]
  Δ T m (TEAD4): ++
[6]
  Δ T m (TEAD1): ++

## CP(C)(=O)c1ccc(Nc2ccc(C(F)(F)F)cc2)c(-c2csc(OC3COC3)n2)c1 [Compound 71]
[1]
  Δ T m (TEAD2): +
[3]
  Δ T m (TEAD3): +
[4]
  Δ T m (TEAD4): ++
[6]
  Δ T m (TEAD1): ++

## CP(C)(=O)c1ccc(Nc2ccc(S(F)(F)(F)(F)F)cc2)c(-c2nccc(OC3COC3)n2)c1 [Compound 74]
[7]
  IC50: 190 nM
[1]
  Δ T m (TEAD2): +
[3]
  Δ T m (TEAD3): +
[4]
  Δ T m (TEAD4): ++++
[8]
  IC50: 210 nM
[6]
  Δ T m (TEAD1): ++++

## COCCc1ccc(OCC(O)CNC(C)C)cc1 (stereo not shown) [Metoprolol]
[10]; [11]
  Papp at 120 min: 17.8 ×10⁻⁶ cm/s
Caco-2 cells; AP→BL
  Papp: 18.4 10^−6 cm/s
Caco-2 cells
  Penetration Type: High

## O=C1OC2(c3ccc(O)cc3Oc3cc(O)ccc32)c2ccccc21 [fluorescein]
[10]; n = 2, read-out: Papp average value
  Papp at 120 min: 0.349 ×10⁻⁶ cm/s
[10]; [11]
  Papp at 120 min: 0.364 ×10⁻⁶ cm/s
Caco-2 cells; AP→BL
  Papp: 0.334 10^−6 cm/s
  Receiving chamber concentration Area ratio/OD: 4.40E+07 and 4.05E+07
Caco-2 cells
  Penetration Type: Zero

## CNC(=C[N+](=O)[O-])NCCSCc1ccc(CN(C)C)o1 [ranitidine]
Caco-2 cells; AP→BL, n = 2
  Papp average value: 1.84 10^−6 cm/s
Caco-2 cells; AP→BL
  Papp: 1.99 10^−6 cm/s and 1.69 10^−6 cm/s
  Receiving chamber concentration Area ratio/OD: 3.32 and 2.82
Caco-2 cells
  Penetration Type: Medium
